Results: patent publication US8729096B2, “Imidazolidine-2,4-dione derivatives as N-formyl peptide receptor 2 modulators” (Allergan, Inc., priority 2012, dated 2014)

Molecular target: T1, FPR2 (Homo sapiens, UniProt P25090)
T1 construct: expressed in transfected cells
T1 sequence (P25090 1-351): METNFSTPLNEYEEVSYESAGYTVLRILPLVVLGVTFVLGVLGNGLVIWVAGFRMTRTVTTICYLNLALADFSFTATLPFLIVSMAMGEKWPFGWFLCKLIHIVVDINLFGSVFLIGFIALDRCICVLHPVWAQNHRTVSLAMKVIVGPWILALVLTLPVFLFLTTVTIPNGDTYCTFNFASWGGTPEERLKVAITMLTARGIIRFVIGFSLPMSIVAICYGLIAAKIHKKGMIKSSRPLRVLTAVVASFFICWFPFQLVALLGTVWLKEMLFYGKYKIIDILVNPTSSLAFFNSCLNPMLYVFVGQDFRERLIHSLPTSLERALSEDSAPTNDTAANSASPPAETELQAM
Assay: FLIPR Tetra compound-induced calcium activity in CHO-Ga16 cells stably expressing FPR2
Format: cell-based
Details: calcium activity on FLIPR Tetra; for Efficacy (fraction): efficacy given as a fraction; for EC50: tested at 0.61 to 10,000 nM
Experimental: CHO-Ga16 cells stably expressing FPR2 were cultured in (F12, 10% FBS, 1% PSA, 400 μg/ml geneticin and 50 μg/ml hygromycin) and HEK-Gqi5 cells stable expressing FPR2 were cultured in (DMEM high glucose, 10% FBS, 1% PSA, 400 μg/ml geneticin and 50 μg/ml hygromycin). In general, the day before the experiment, 18,000 cells/well were placed in a 384-well clear bottom poly-d-lysine coated plate. The following day the screening compound-induced calcium activity was assayed on the FLIPR^Tetra. The drug plates were prepared in 384-well microplates using the EP3 and the MultiPROBE robotic liquid handling systems. Compounds were tested at concentrations ranging from 0.61 to 10,000 nM. Results are expressed as EC50 (nM) and efficacy values.

Row | Efficacy (fraction) | EC50 | Structure (SMILES)
1 | (1.00) | 647 nM | O=C(CN1C(=O)NC2(CCC2)C1=O)Nc1ccc(Br)cc1 [Compound 6, N-(4-Bromophenyl)-2-(6,8-dioxo-5,7-diazaspiro[3.4]octan-7-yl)acetamide]
2 | (0.93) | 343 nM | O=C(CN1C(=O)C2CCCN2C1=O)Nc1ccc(Br)cc1 (stereo not shown) [Compound 2, N-(4-bromophenyl)-2-(1,3-dioxotetrahydro-1H-pyrrolo[1,2-c]imidazol-2(3H)-yl)acetamide]
3 | (1.0) | 243 nM | O=C(CN1C(=O)C2CCCCN2C1=O)Nc1ccc(Br)cc1 (stereo not shown) [Compound 3, N-(4-bromophenyl)-2-(1,3-dioxohexahydroimidazo[1,5-a]pyridin-2(3H)-yl)acetamide]

Second part, the compound before the results:

Row | Structure (SMILES) | Efficacy (fraction) | EC50
4 | COCC1(C)NC(=O)N(CC(=O)Nc2ccc(Br)cc2)C1=O (stereo not shown) [Compound 5] | (1.00) | 306 nM
5 | CCC1(C(C)C)NC(=O)N(CC(=O)Nc2ccc(Br)cc2)C1=O (stereo not shown) [Compound 1, N-(4-bromophenyl)-2-(4-ethyl-4-isopropyl-2,5-dioxoimidazolidin-1-yl)acetamide] | (0.99) | 56 nM
